Earlier results, collected in US11375717B2, “Combinations of acaricides and insect growth regulators for control of fleas without emesis in animals” (Piedmont Animal Health Inc., priority 2017, dated 2022).

Details: 30 mg/kg in cats and 10 mg/kg in dogs

With O=C(NC(=O)c1c(F)cccc1F)Nc1cc(Cl)c(OC(F)(F)C(F)C(F)(F)F)cc1Cl (stereo not shown) [Lufenuron] as the compound, how does the Emesis read?
Its Emesis is “common side effect”.
